This experiment has as its target T1, ALPL (Mus musculus, UniProt P09242).
T1 construct: from tissue; host or cells: brain sections (cerebral cortex vasculature) of aged C57BL/6 mice dosed in vivo
T1 sequence (P09242 18-501): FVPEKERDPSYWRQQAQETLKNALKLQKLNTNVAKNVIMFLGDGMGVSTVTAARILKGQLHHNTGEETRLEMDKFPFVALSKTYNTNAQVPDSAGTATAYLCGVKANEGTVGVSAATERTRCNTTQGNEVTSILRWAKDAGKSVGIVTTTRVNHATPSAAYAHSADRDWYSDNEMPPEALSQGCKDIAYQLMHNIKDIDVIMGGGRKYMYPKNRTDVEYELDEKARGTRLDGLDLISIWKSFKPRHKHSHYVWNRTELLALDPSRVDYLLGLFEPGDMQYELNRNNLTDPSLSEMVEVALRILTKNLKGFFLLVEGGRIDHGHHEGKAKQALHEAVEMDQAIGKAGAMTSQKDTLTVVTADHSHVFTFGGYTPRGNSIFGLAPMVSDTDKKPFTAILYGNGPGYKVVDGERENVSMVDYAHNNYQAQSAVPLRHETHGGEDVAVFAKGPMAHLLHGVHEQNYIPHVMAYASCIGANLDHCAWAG
As to the kind of experiment: ALPL activity in the cerebral cortex vasculature (Red Alkaline Phosphatase Substrate Kit). The format is in vivo. As to conditions: aged (22 m.o.) mice, 8.75 mg/kg intraperitoneally twice per day for three days, vs vehicle. The source says:
FIG. 12A is a dot plot representation of cell-surface, druggable gene candidates on brain endothelial cells. Genes were plotted by their degree of blood-brain barrier specificity (Daneman et al., PLoS One (2010). doi:10.1371/journal.pone.0013741) and correlation with plasma uptake. Genes were colored by their upregulation (brown) or downregulation (green) with age. FIG. 12B includes representative images of calcified nodules (Alizarin red staining) detected in aged (23 m.o.—bottom panel) but not young (3 m.o.—top panel) mice, recapitulating nodules seen in pericyte-deficient Pdgfbret/ret mice (Keller et al., Nat. Genet. (2013). doi:10.1038/ng.2723) (representative image of n=5 mice per age). […] FIG. 12E is a graph illustrating quantification of ALPL expression in the cerebral cortex vasculature of young (3 m.o.) and aged (23 m.o.) mice (n=7, two-sided t-test; mean+/−s.e.m.). […] Uptake in the brain endothelium and parenchyma was assessed by flow cytometry and confocal microscopy of the cortex and hippocampus. […] FIG. 12H is a graph illustrating quantification of ALPL activity in the cerebral cortex vasculature of aged (22 m.o.) mice treated with ALPL inhibitor (anti-ALPL) or vehicle and in young (3 m.o.) mice (n=6-9, one-way ANOVA with Tukey's multiple comparisons correction; mean+/−s.e.m.). […]

Take `COc1ccc(OC)c(S(=O)(=O)Nc2cnc3ccccc3c2)c1` [ALPL inhibitor, 2,5-Dimethoxy-N-(quinolin-3-yl)benzenesulfonamide]: the “ALPL activity in the aged brain vasculature” value was “decreased”.

The values are drawn from patent US20230257480A1, “ENHANCING BLOOD-BRAIN BARRIER DRUG TRANSPORT BY TARGETING ENDOGENOUS REGULATORS” (THE BOARD OF TRUSTEES OF THE LELAND STANFORD JUNIOR …, priority 2019, published 2023).
